# In patent US7851474B2, “Dipiperazinyl ketones and related analogues” (Neurogen Corporation, priority 2005, dated 2010):
# Where two headings read alike, the source gives them in different places.
# Molecular target: T1, chimeric human H3 receptor (Homo sapiens, UniProt Q9Y5N1, E19D)
# T1 construct: made in house; host or cells: Sf9 insect cells (baculovirus infection); P2 membrane preparation
# Assay: Chimeric human H3 receptor GTP binding assay (agonist-stimulated GTP-gamma35S binding, Example 7)
# Assay type: biochemical
# In short: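 IC50 values come from non-linear regression of dose-response curves of filter-bound GTP-gamma^35S, counted by scintillation. Membranes were from infected Sf9 cells carrying receptor plus G-protein subunits, 35 μg/tube, with 10 μM GDP present.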
# [1] = assay of Example 7, "*" in Ki of Table II, read-out: Ki
# [2] = assay of Example 7, symbol * in column headed Ki of Table II, read-out: Ki
# [3] = Table II, assay of Example 7, "*" in Ki, read-out: Ki
# [4] = Table II, "*" in Ki, assay of Example 7, read-out: Ki
# [5] = Table II "Ki", symbol "*": Ki in the assay of Example 7, read-out: Ki
# T1 sequence (Q9Y5N1 with tags, fused parts or gaps E19D): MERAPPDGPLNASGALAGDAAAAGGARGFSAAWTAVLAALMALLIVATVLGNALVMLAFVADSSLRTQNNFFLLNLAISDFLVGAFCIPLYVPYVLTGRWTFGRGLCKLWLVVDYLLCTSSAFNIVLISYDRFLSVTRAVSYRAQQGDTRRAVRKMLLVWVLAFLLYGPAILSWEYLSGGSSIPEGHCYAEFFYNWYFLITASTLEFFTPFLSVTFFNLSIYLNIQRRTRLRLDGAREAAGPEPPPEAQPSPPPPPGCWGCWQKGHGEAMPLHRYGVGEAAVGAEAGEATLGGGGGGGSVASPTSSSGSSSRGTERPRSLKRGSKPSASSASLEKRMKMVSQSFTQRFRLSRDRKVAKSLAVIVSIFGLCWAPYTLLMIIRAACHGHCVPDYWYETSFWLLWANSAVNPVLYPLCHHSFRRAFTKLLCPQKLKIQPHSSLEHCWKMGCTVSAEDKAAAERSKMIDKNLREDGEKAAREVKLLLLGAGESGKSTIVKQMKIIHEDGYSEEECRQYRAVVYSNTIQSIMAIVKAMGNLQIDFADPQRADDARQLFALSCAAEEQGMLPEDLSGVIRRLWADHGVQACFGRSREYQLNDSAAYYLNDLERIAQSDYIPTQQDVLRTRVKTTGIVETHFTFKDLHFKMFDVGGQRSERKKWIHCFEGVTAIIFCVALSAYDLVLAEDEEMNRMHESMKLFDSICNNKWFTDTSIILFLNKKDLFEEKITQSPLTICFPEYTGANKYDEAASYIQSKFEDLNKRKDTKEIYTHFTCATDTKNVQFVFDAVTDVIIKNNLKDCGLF
compound,measurement,setting,value
"CC(C)OC1=NCN(c2ccccc2)C12CCN(CC(=O)N1CCN(C3CCC3)CC1)CC2 [Compound 1192, 8-[2-(4-cyclobutylpiperazin-1-yl)-2-oxoethyl]-4-isopropoxy-1-phenyl-1,3,8-triazaspiro[4.5]dec-3-ene]",Ki,[1],< 1000 nM
"CC(=O)c1ccc(N2CCN(CC(=O)N3CCN(C(C)C)CC3)CC2)cc1 [Compound 329, 1-(4-{4-[2-(4-isopropylpiperazin-1-yl)-2-oxoethyl]piperazin-1-yl}phenyl)ethanone]",Ki,[2],< 1000 nM
"O=C(CN1CCN(c2ccc(-c3ccccc3)nn2)CC1)N1CCN(C2CCC2)CC1 [Compound 1002, 3-{4-[2-(4-cyclobutylpiperazin-1-yl)-2-oxoethyl]piperazin-1-yl}-6-phenylpyridazine]",Ki,[3],< 1000 nM
"CCC(=O)c1ccc(N2CCN(CC(=O)N3CCN(C4CCC4)CC3)CC2)cc1 [Compound 312, 1-(4-{4-[2-(4-cyclobutylpiperazin-1-yl)-2-oxoethyl]piperazin-1-yl}phenyl)propan-1-one]",Ki,[2],< 1000 nM
"O=C(CN1CCN(c2ccc(C(=O)N3CCOCC3)cc2)CC1)N1CCN(C2CCC2)CC1 [Compound 1093, 4-(4-{4-[2-(4-cyclobutylpiperazin-1-yl)-2-oxoethyl]piperazin-1-yl}benzoyl)morpholine]",Ki,[3],< 1000 nM
"CC(C)CCC(=O)NC1CCN(CC(=O)N2CCN(C3CCC3)CC2)C1 (stereo not shown) [Compound 1247, N-{1-[2-(4-cyclobutylpiperazin-1-yl)-2-oxoethyl]pyrrolidin-3-yl}-4-methylpentanamide]",Ki,[1],< 1000 nM
"O=C(CN1CCC2(CC1)C(=O)Nc1cccnc12)N1CCN(C2CCC2)CC1 [Compound 435, 1-[2-(4-cyclobutylpiperazin-1-yl)-2-oxoethyl]spiro[piperidine-4,3′-pyrrolo[3,2-b]pyridin]-2′(1′H)-one]",Ki,[2],< 1000 nM
"COc1cccc(C(=O)NC2CCN(CC(=O)N3CCN(C4CCC4)CC3)C2)c1 (stereo not shown) [Compound 1236, N-{1-[2-(4-cyclobutylpiperazin-1-yl)-2-oxoethyl]pyrrolidin-3-yl}-3-methoxybenzamide]",Ki,[1],< 1000 nM
"COc1ccc(OC)c(-c2ccc(N3CCN(CC(=O)N4CCN(C5CCC5)CC4)CC3)cc2)c1 [Compound 687, 1-cyclobutyl-4-{[4-(2′,5′-dimethoxybiphenyl-4-yl)piperazin-1-yl]acetyl}piperazine]",Ki,[4],< 1000 nM
"O=C(CN1CCN(c2ccc(-c3cccc(F)c3)cc2)CC1)N1CCN(C2CCC2)CC1 [Compound 753, 1-cyclobutyl-4-{[4-(3′-fluorobiphenyl-4-yl)piperazin-1-yl]acetyl}piperazine]",Ki,[4],< 1000 nM
"O=C(Cc1c(F)cccc1Cl)N1CCN(CC(=O)N2CCN(C3CCC3)CC2)CC1 [Compound 382, 1-[(2-chloro-6-fluorophenyl)acetyl]-4-[2-(4-cyclobutylpiperazin-1-yl)-2-oxoethyl]piperazine]",Ki,[2],< 1000 nM
"O=C(CN1CCN(c2ccc(-c3cc(Cl)ccc3Cl)nn2)CC1)N1CCN(C2CCC2)CC1 [Compound 1060, 3-{4-[2-(4-cyclobutylpiperazin-1-yl)-2-oxoethyl]piperazin-1-yl}-6-(2,5-dichlorophenyl)pyridazine]",Ki,[3],< 1000 nM
"CC1CC(C)CN(C(=O)c2cccc(N3CCN(CC(=O)N4CCN(C5CCC5)CC4)CC3)c2)C1 (stereo not shown) [Compound 641, 1-cyclobutyl-4-[(4-{3-[(3,5-dimethylpiperidin-1-yl)carbonyl]phenyl}piperazin-1-yl)acetyl]piperzaine]",Ki,[4],< 1000 nM
"O=C(N1CCN(C2CCCC2)CC1)N1CCC2(CC1)C(=O)N(Cc1ccccc1)c1ccccc12 [Compound 489, 1-benzyl-1′-[(4-cyclopentylpiperazin-1-yl)carbonyl]spiro[indole-3,4′-piperidin]-2(1H)-one]",Ki,"""*"" in Ki of Table II, assay of Example 7, read-out: Ki",< 1000 nM
"CCC(C)N1CCN(C(=O)CN2CCN(c3ccc(OC)cc3)CC2)CC1 (stereo not shown) [Compound 881, 1-sec-butyl-4-{[4-(4-methoxyphenyl)piperazin-1-yl]acetyl}piperazine]",Ki,[5],< 1000 nM
"O=C(CN1CC=C(c2ccccc2)CC1)N1CCN(C2CCC2)CC1 [Compound 656, 1-cyclobutyl-4-[(4-phenyl-3,6-dihydropyridin-1(2H)-yl)acetyl]piperazine]",Ki,[4],< 1000 nM
"CC(C)c1cccc(-c2ccc(N3CCN(CC(=O)N4CCN(C5CCC5)CC4)CC3)cc2)c1 [Compound 756, 1-cyclobutyl-4-{[4-(3′-isopropylbiphenyl-4-yl)piperazin-1-yl]acetyl}piperazine]",Ki,[4],< 1000 nM
"COc1ccc(-c2ccc(N3CCN(CC(=O)N4CCN(C5CCC5)CC4)CC3)nn2)cc1OC [Compound 1033, 3-{4-[2-(4-cyclobutylpiperazin-1-yl)-2-oxoethyl]piperazin-1-yl}-6-(3,4-dimethoxyphenyl) pyridazine]",Ki,[3],< 1000 nM
"Cc1cccc(-c2cnc(N3CCN(CC(=O)N4CCN(C5CCC5)CC4)CC3)cn2)c1 [Compound 924, 2-{4-[2-(4-cyclobutylpiperazin-1-yl)-2-oxoethyl]piperazin-1-yl}-5-(3-methylphenyl)pyrazine]",Ki,[5],< 1000 nM
"O=C(NCC1CCCCC1)c1ccc(N2CCN(CC(=O)N3CCN(C4CCC4)CC3)CC2)nc1 [Compound 1186, 6-{4-[2-(4-cyclobutylpiperazin-1-yl)-2-oxoethyl]piperazin-1-yl}-N-(cyclohexylmethyl) nicotinamide]",Ki,[1],< 1000 nM
"O=C(CN1CCN(c2ccc(-c3cncnc3)nn2)CC1)N1CCN(C2CCC2)CC1 [Compound 1001, 3-{4-[2-(4-cyclobutylpiperazin-1-yl)-2-oxoethyl]piperazin-1-yl}-6-pyrimidin-5-ylpyridazine]",Ki,[3],< 1000 nM
"CCCC(C)NC(=O)c1ccc(N2CCN(CC(=O)N3CCN(C4CCC4)CC3)CC2)cc1 (stereo not shown) [Compound 1142, 4-{4-[2-(4-cyclobutylpiperazin-1-yl)-2-oxoethyl]piperazin-1-yl}-N-(1-methylbutyl)benzamide]",Ki,[1],< 1000 nM
"O=C(CN1CCC(N2CCCC2)CC1)N1CCN(C2CCC2)CC1 [Compound 658, 1-cyclobutyl-4-[(4-pyrrolidin-1-ylpiperidin-1-yl)acetyl]piperazine]",Ki,[4],< 1000 nM
"COc1ccc(C)cc1-c1ccc(N2CCN(CC(=O)N3CCN(C4CCC4)CC3)CC2)nn1 [Compound 1046, 3-{4-[2-(4-cyclobutylpiperazin-1-yl)-2-oxoethyl]piperazin-1-yl}-6-(2-methoxy-5-methylphenyl) pyridazine]",Ki,[3],< 1000 nM
"CCCC(C)C(=O)NC1CCN(CC(=O)N2CCN(C3CCC3)CC2)CC1 (stereo not shown) [Compound 1210, N-{1-[2-(4-cyclobutylpiperazin-1-yl)-2-oxoethyl]piperidin-4-yl}-2-methylpentanamide]",Ki,[1],< 1000 nM
"O=C(CN1CCN(c2cnc(-c3ccc4c(c3)OCCO4)cn2)CC1)N1CCN(C2CCC2)CC1 [Compound 947, 2-{4-[2-(4-cyclobutylpiperazin-1-yl)-2-oxoethyl]piperazin-1-yl}-5-(2,3-dihydro-1,4-benzodioxin-6-yl)pyrazine]",Ki,[3],< 1000 nM
"O=C(CN1CCN(c2ccc(-c3cncnc3)cc2)CC1)N1CCN(C2CCC2)CC1 [Compound 1154, 5-(4-{4-[2-(4-cyclobutylpiperazin-1-yl)-2-oxoethyl]piperazin-1-yl}phenyl)pyrimidine]",Ki,[1],< 1000 nM
"O=C(CN1CCN(c2ccc(-c3ccc(Cl)c(F)c3)cc2)CC1)N1CCN(C2CCC2)CC1 [Compound 343, 1-(4′-chloro-3′-fluorobiphenyl-4-yl)-4-[2-(4-cyclobutylpiperazin-1-yl)-2-oxoethyl]piperazine]",Ki,[2],< 1000 nM
"CC1CCCN1C(=O)c1ccc(N2CCN(CC(=O)N3CCN(C4CCC4)CC3)CC2)nn1 (stereo not shown) [Compound 1064, 3-{4-[2-(4-cyclobutylpiperazin-1-yl)-2-oxoethyl]piperazin-1-yl}-6-[(2-methylpyrrolidin-1-yl)carbonyl]pyridazine]",Ki,[3],< 1000 nM
"O=C(CN1CCN(c2ccc(-c3ccc(Oc4ccccc4)cc3)cc2)CC1)N1CCN(C2CCC2)CC1 [Compound 787, 1-cyclobutyl-4-{[4-(4′-phenoxybiphenyl-4-yl)piperazin-1-yl]acetyl}piperazine]",Ki,[5],< 1000 nM
"COc1cccc(-c2cnc(N3CCN(CC(=O)N4CCN(C5CCC5)CC4)CC3)cn2)c1 [Compound 933, 2-{4-[2-(4-cyclobutylpiperazin-1-yl)-2-oxoethyl]piperazin-1-yl}-5-(3-methoxyphenyl)pyrazine]",Ki,[5],< 1000 nM
"Cc1ccc(N2CCN(CC(=O)N3CCN(C4CCC4)CC3)CC2)cc1C [Compound 736, 1-cyclobutyl-4-{[4-(3,4-dimethylphenyl)piperazin-1-yl]acetyl}piperazine]",Ki,[4],< 1000 nM
"CC(=O)c1ccc(N2CCN(CC(=O)N3CCN(C4CCC4)CC3)CC2)c(Cl)c1 [Compound 295, 1-(3-chloro-4-{4-[2-(4-cyclobutylpiperazin-1-yl)-2-oxoethyl]piperazin-1-yl}phenyl)ethanone]",Ki,[2],< 1000 nM
"CCN(C(=O)c1ccc(N2CCN(CC(=O)N3CCN(C4CCC4)CC3)CC2)cc1)C(C)C [Compound 1126, 4-{4-[2-(4-cyclobutylpiperazin-1-yl)-2-oxoethyl]piperazin-1-yl}-N-ethyl-N-isopropylbenzamide]",Ki,[3],< 1000 nM
"CCC(C)N1CCN(C(=O)CN2CCN(c3cccc(Cl)c3)CC2)CC1 (stereo not shown) [Compound 873, 1-sec-butyl-4-{[4-(3-chlorophenyl)piperazin-1-yl]acetyl}piperazine]",Ki,,< 1000 nM
"O=C(CN1CCN(c2cnc(-c3ccc(F)cc3)cn2)CC1)N1CCN(C2CCC2)CC1 [Compound 919, 2-{4-[2-(4-cyclobutylpiperazin-1-yl)-2-oxoethyl]piperazin-1-yl}-5-(4-fluorophenyl)pyrazine]",Ki,[5],< 1000 nM
"O=C(CN1CCN(c2ccc(Cl)c(Cl)c2)CC1)N1CCN(C2CCCCC2)CC1 [Compound 815, 1-cyclohexyl-4-{[4-(3,4-dichlorophenyl)piperazin-1-yl]acetyl}piperazine]",Ki,[5],< 1000 nM
